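Tested at 5 concentrations; 48 h exposure; 96-well plates; endpoints linearly interpolated, else capped at highest concentration. At the TGI there is no net growth.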 Active and inactive are the calls of the source. No stated cut-off is given here; in the data, active means GI50 below about 0.43 µM; inactive means the rest.
What was measured:
Assay in all cases: NCI-60 cell line screen, 48 h
RPMI-8226 leukemia = test system: RPMI-8226 leukemia
MCF7 breast = test system: MCF7 breast
TK-10 renal = test system: TK-10 renal
CCRF-CEM leukemia = test system: CCRF-CEM leukemia
LOX IMVI melanoma = test system: LOX IMVI melanoma
HCT-116 colon = test system: HCT-116 colon
HCT-15 colon = test system: HCT-15 colon
DU-145 prostate = test system: DU-145 prostate
COLO 205 colon = test system: COLO 205 colon
EKVX NSCLC = test system: EKVX NSCLC
HT29 colon = test system: HT29 colon
MDA-N = test system: MDA-N
MDA-MB-435 = test system: MDA-MB-435
SK-MEL-2 melanoma = test system: SK-MEL-2 melanoma
SF-295 CNS = test system: SF-295 CNS
SK-OV-3 ovarian = test system: SK-OV-3 ovarian
CAKI-1 renal = test system: CAKI-1 renal
MDA-MB-231 breast = test system: MDA-MB-231 breast
HL-60(TB) leukemia = test system: HL-60(TB) leukemia
SK-MEL-5 melanoma = test system: SK-MEL-5 melanoma
IGROV1 ovarian = test system: IGROV1 ovarian
OVCAR-5 ovarian = test system: OVCAR-5 ovarian
UACC-257 melanoma = test system: UACC-257 melanoma
A549 NSCLC = test system: A549 NSCLC
SF-539 CNS = test system: SF-539 CNS
UACC-62 melanoma = test system: UACC-62 melanoma
NCI/ADR-RES ovarian = test system: NCI/ADR-RES ovarian
T-47D breast = test system: T-47D breast
U251 CNS = test system: U251 CNS
OVCAR-3 ovarian = test system: OVCAR-3 ovarian
SF-268 CNS = test system: SF-268 CNS
HS 578T breast = test system: HS 578T breast
OVCAR-4 ovarian = test system: OVCAR-4 ovarian
SK-MEL-28 melanoma = test system: SK-MEL-28 melanoma
SR leukemia = test system: SR leukemia
K-562 leukemia = test system: K-562 leukemia
RXF 393 renal = test system: RXF 393 renal
NCI-H23 lung = test system: NCI-H23 lung
HCC-2998 colon = test system: HCC-2998 colon
NCI-H460 lung = test system: NCI-H460 lung
BT-549 breast = test system: BT-549 breast
PC-3 prostate = test system: PC-3 prostate
NCI-H226 lung = test system: NCI-H226 lung
MOLT-4 leukemia = test system: MOLT-4 leukemia
SN12C renal = test system: SN12C renal
M14 melanoma = test system: M14 melanoma
SNB-19 CNS = test system: SNB-19 CNS
OVCAR-8 ovarian = test system: OVCAR-8 ovarian
HOP-62 NSCLC = test system: HOP-62 NSCLC
786-0 renal = test system: 786-0 renal
A498 renal = test system: A498 renal
HOP-92 NSCLC = test system: HOP-92 NSCLC
MALME-3M melanoma = test system: MALME-3M melanoma
NCI-H522 lung = test system: NCI-H522 lung
UO-31 renal = test system: UO-31 renal
KM12 colon = test system: KM12 colon
SW-620 colon = test system: SW-620 colon
SNB-75 CNS = test system: SNB-75 CNS

CC(C)(C)C(=O)CC1(O)C=C(O)C(O)(CC(=O)C(C)(C)C)O1 (stereo not given)
TGI (RPMI-8226 leukemia): 69.7 µM | TGI (MCF7 breast): > 100 µM | TGI (TK-10 renal): > 100 µM | TGI (CCRF-CEM leukemia): > 100 µM | TGI (LOX IMVI melanoma): > 100 µM | TGI (HCT-116 colon): 55.3 µM | TGI (HCT-15 colon): > 100 µM | TGI (DU-145 prostate): > 100 µM | TGI (COLO 205 colon): > 100 µM | TGI (EKVX NSCLC): > 100 µM | TGI (HT29 colon): > 100 µM | TGI (MDA-N): > 100 µM | TGI (MDA-MB-435): > 100 µM | TGI (SK-MEL-2 melanoma): > 100 µM | TGI (SF-295 CNS): > 100 µM | TGI (SK-OV-3 ovarian): > 100 µM | TGI (CAKI-1 renal): 67.6 µM | TGI (MDA-MB-231 breast): > 100 µM | TGI (HL-60(TB) leukemia): 72.1 µM | TGI (SK-MEL-5 melanoma): > 100 µM | TGI (IGROV1 ovarian): 55.2 µM | TGI (OVCAR-5 ovarian): > 100 µM | TGI (UACC-257 melanoma): > 100 µM | TGI (A549 NSCLC): > 100 µM | TGI (SF-539 CNS): 90.2 µM | TGI (UACC-62 melanoma): 97.1 µM | TGI (NCI/ADR-RES ovarian): > 100 µM | TGI (T-47D breast): > 100 µM | TGI (U251 CNS): > 100 µM | TGI (OVCAR-3 ovarian): > 100 µM | TGI (SF-268 CNS): > 100 µM | TGI (HS 578T breast): > 100 µM | TGI (OVCAR-4 ovarian): 64.1 µM | TGI (SK-MEL-28 melanoma): > 100 µM | TGI (SR leukemia): > 100 µM | TGI (K-562 leukemia): > 100 µM | TGI (RXF 393 renal): 45.1 µM | TGI (NCI-H23 lung): 88.7 µM | TGI (HCC-2998 colon): > 100 µM | TGI (NCI-H460 lung): > 100 µM | TGI (BT-549 breast): > 100 µM | TGI (PC-3 prostate): > 100 µM | TGI (NCI-H226 lung): 56.6 µM | TGI (MOLT-4 leukemia): > 100 µM | TGI (SN12C renal): > 100 µM | TGI (M14 melanoma): 51.1 µM | TGI (SNB-19 CNS): > 100 µM | TGI (OVCAR-8 ovarian): > 100 µM | TGI (HOP-62 NSCLC): 64.7 µM | TGI (786-0 renal): 34.5 µM | TGI (A498 renal): > 100 µM | TGI (HOP-92 NSCLC): > 100 µM | TGI (MALME-3M melanoma): > 100 µM | TGI (NCI-H522 lung): 80 µM | TGI (UO-31 renal): > 100 µM | TGI (KM12 colon): > 100 µM

O=c1cc(-c2ccc(O)c(O)c2-c2c(O)cc(O)c3c(=O)cc(-c4ccc(O)c(O)c4-c4c(O)cc(O)c5c(=O)cc(-c6ccc(O)c(O)c6)oc45)oc23)oc2cc(O)cc(O)c12
outcome (MCF7 breast): inactive | outcome (TK-10 renal): inactive | outcome (CCRF-CEM leukemia): inactive | outcome (LOX IMVI melanoma): inactive | outcome (HCT-116 colon): inactive | outcome (HCT-15 colon): inactive | outcome (DU-145 prostate): inactive | outcome (COLO 205 colon): inactive | outcome (EKVX NSCLC): inactive | outcome (HT29 colon): inactive | outcome (MDA-N): inactive | outcome (MDA-MB-435): inactive | outcome (SK-MEL-2 melanoma): inactive | outcome (SF-295 CNS): inactive | outcome (SK-OV-3 ovarian): inactive | outcome (CAKI-1 renal): inactive | outcome (MDA-MB-231 breast): inactive | outcome (HL-60(TB) leukemia): inactive | outcome (SK-MEL-5 melanoma): inactive | outcome (IGROV1 ovarian): inactive | outcome (OVCAR-5 ovarian): inactive | outcome (UACC-257 melanoma): inactive | outcome (A549 NSCLC): inactive | outcome (SF-539 CNS): inactive | outcome (UACC-62 melanoma): inactive | outcome (NCI/ADR-RES ovarian): inactive | outcome (T-47D breast): inactive | outcome (U251 CNS): inactive | outcome (OVCAR-3 ovarian): inactive | outcome (SF-268 CNS): inactive | outcome (HS 578T breast): inactive | outcome (OVCAR-4 ovarian): inactive | outcome (SK-MEL-28 melanoma): inactive | outcome (SR leukemia): inactive | outcome (K-562 leukemia): inactive | outcome (RXF 393 renal): inactive | outcome (NCI-H23 lung): inactive | outcome (HCC-2998 colon): inactive | outcome (NCI-H460 lung): inactive | outcome (SW-620 colon): inactive | outcome (BT-549 breast): inactive | outcome (PC-3 prostate): inactive | outcome (NCI-H226 lung): inactive | outcome (MOLT-4 leukemia): inactive | outcome (SN12C renal): inactive | outcome (M14 melanoma): inactive | outcome (SNB-19 CNS): inactive | outcome (OVCAR-8 ovarian): inactive | outcome (HOP-62 NSCLC): inactive | outcome (SNB-75 CNS): inactive | outcome (A498 renal): inactive | outcome (HOP-92 NSCLC): inactive | outcome (MALME-3M melanoma): inactive | outcome (UO-31 renal): inactive
